Here are results for 13 compounds from US4371523A, “Reducing the aggregation of insulin in solution” (The Regents of the University of California, priority 1980, dated 1983).

Structures are written as SMILES. Entries after “also recorded” stand apart in the source; their conditions may differ.

The test system of one data set is insulin.
Assay: not given
Particulars: supplemental material added to insulin solution; cited from earlier work.
As for `N[C@@H](CS)C(=O)O` [Cysteine], the “Effect in preventing the aggregation of insulin in solution over extended periods of time” value (“Effect … over extended periods of time” for short) was “do not appear to have any appreciable effect”.
In the case of `NCC(=O)O` [Glycine], the “Effect … over extended periods of time” value was “do not appear to have any appreciable effect”.
As for `N[C@@H](Cc1c[nH]cn1)C(=O)O` [Histidine], the “Effect … over extended periods of time” value is on record as “do not appear to have any appreciable effect”.
With `OCc1ccccc1` [benzol alcohol], the “Effect … over extended periods of time” value was “do not appear to have any appreciable effect”.
Consider `O=C(O)CN(CCN(CC(=O)O)CC(=O)O)CC(=O)O` [ethylene diamine tetraacetic acid], for which the “Effect … over extended periods of time” value is reported as “do not appear to have any appreciable effect”.
With `O=C([O-])O.[Na+]` [sodium bicarbonate], the “Effect … over extended periods of time” value was “do not appear to have any appreciable effect”.
As for `[Cl-].[Na+]` [sodium chloride], the “Effect … over extended periods of time” value is “do not appear to have any appreciable effect”.
In the case of `O=P(O)(O)O` [sodium phosphate], the “Effect … over extended periods of time” value is recorded as “do not appear to have any appreciable effect”.

For a further data set, the target named is T1, single component neutral pork zinc insulin (Sus scrofa, UniProt P01315).
T1 construct: single component, neutral, pork, zinc-insulin (U.500 regular Iletin II., Eli Lilly & Company); purchased Eli Lilly & Company U.500 regular Iletin II
T1 sequence (P01315 25-54 limits assumed): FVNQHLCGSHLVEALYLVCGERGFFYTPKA
T1 sequence (P01315 88-108 limits assumed): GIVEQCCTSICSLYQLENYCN
The experiment in a line: Controlled shaking of zinc insulin solutions in test tubes, optical density at 600 nm. It counts as physicochemical. The following applies: agent added to insulin solution at acid pH 3.3-3.5. As to the method: In vitro testing of single component neutral pork zinc insulin was undertaken with a number of added agents. Solutions at about neutral pH and at acid pH were tested. In addition, some testing was also undertaken with Na insulin.
The tests were conducted using plastic tybes (5 ml test tubes, Sarstedt, sealed by plastic caps covered with paraffin) each containing 2 ml of the insulin solutions noted below. The tubes were continuously agitated in a metabolic shaking incubator (Dubnoff E.C.A. Co.) at 60 to 80 r.p.m. and 37° C. for periods up to sixteen days.
The zinc insulin solutions were prepared by appropriate dilutions of highly concentrated (500 U/ml) single component, neutral, pork, zinc-insulin (U.500 regular Iletin II., Eli Lilly & Company). The unbuffered diluting fluid contained glycerin, 16 mg/ml, and phenol, 2 mg/ml of distilled water (Eli Lilly & Company). […] Final insulin concentration in all solutions was 50 U/ml (2 mg/ml).
Insulin solutions with amino acid added were prepared by addition of the dry amino acids (Sigma Company) to the neutral zinc or sodium insulin solutions. Final concentration of the amino acid additives was 7 mg per ml of insulin solution. pH was adjusted, when necessary, to 7.5 for neutral insulin mixtures and to 3.3-3.5 for acid insulin mixtures.
Several non-amino carboxylic acids, i.e., lactic acid, acetic acid, and citric acid, were added under the same conditions of concentration and pH as described for the amino acids.
The various insulin solutions, both as made up without additives and with additives, were shaken as noted above for up to sixteen days, at which time the solutions were examined with an optical densitometer at a wave length 600 nm. The optical density (OD) of each solution was an indication of the amount of aggregation present after the shaking period. The higher the optical density, the greater the aggregation in that solution.
For `CC(=O)O` [Acetic Acid], the “Protective effect against insulin aggregation (in words)” value (“Protective effect” for short) is given as “do not prevent aggregation; also recorded: a comparable protective effect was not noted”.
With `C[C@H](N)C(=O)O` [Alanine], the “Protective effect” value is listed as “no protective effect was noted”.
Take `N=C(N)NCCC[C@H](N)C(=O)O` [Arginine]: the “Protective effect” value is given as “no protective effect was noted”.
Same read-out and setting: the value for `NC(=O)C[C@H](N)C(=O)O` [Asparagine] was “no protective effect was noted”; that for `O=C(O)CC(O)(CC(=O)O)C(=O)O` [Citric Acid] was “do not prevent aggregation; also recorded: a comparable protective effect was not noted”.
As for `NCC(=O)O` [Glycine], the “Protective effect” value is “no protective effect was noted”.
For the compound `N[C@@H](Cc1c[nH]cn1)C(=O)O` [Histidine], the “Protective effect” value is given as “no protective effect was noted”.

Staying with this data set, now noted: agent added to insulin solution at acid pH 3.3-3.5; listed as acetate.
Turning to `CC(=O)O` [Acetic Acid], the “Protective effect” value is “exacerbate aggregation”.

The same data set, now with this note: agent added to insulin solution at acid pH 3.3-3.5; listed as citrate.
For the compound `O=C(O)CC(O)(CC(=O)O)C(=O)O` [Citric Acid], the “Protective effect” value is “exacerbate aggregation”.

The same data set, now with this note: zinc insulin 50 U/ml, pH 3.3-3.5, shaken 16 days at 37° C., OD at 600 nm.
On to `C[C@H](N)C(=O)O` [Alanine], for which the “Optical Density ± 1 × SE” value was determined as 0.41 ± 0.02.
Still for that read-out and setting: the value for `N[C@@H](CS)C(=O)O` [Cysteine] was 0.39 ± 0.08; that for `NCC(=O)O` [Glycine] was 0.28 ± 0.04.

The same data set, now with this note: zinc insulin 50 U/ml, pH 7.4, shaken 16 days at 37° C., OD at 600 nm; higher OD = greater aggregation.
Take `C[C@H](N)C(=O)O` [Alanine]: the “Optical Density ± 1 × SE” value was 0.84 ± 0.04.
On to `N=C(N)NCCC[C@H](N)C(=O)O` [Arginine], for which the “Optical Density ± 1 × SE” value is on record as 0.074 ± 0.03.
For `NC(=O)C[C@H](N)C(=O)O` [Asparagine], the “Optical Density ± 1 × SE” value amounted to 0.87 ± 0.13.
Regarding `N[C@@H](CS)C(=O)O` [Cysteine], the “Optical Density ± 1 × SE” value amounted to 0.34 ± 0.13.
Regarding `NCC(=O)O` [Glycine], the “Optical Density ± 1 × SE” value is listed as 0.66 ± 0.095.
Consider `N[C@@H](Cc1c[nH]cn1)C(=O)O` [Histidine], for which the “Optical Density ± 1 × SE” value came out at 0.245 ± 0.08.

Still in this data set, the particulars now being: zinc insulin, pH 7.4, 16 days.
As for `N=C(N)NCCC[C@H](N)C(=O)O` [Arginine], the “Observation of the solution after shaking” value is “Gel formed”.
